From patent US9266904B2, “6-bridged heteroaryldihydropyrimidines for the treatment and prophylaxis of hepatitis B virus infection” (priority 2013, dated 2016)
≈ marks a conversion by molar mass, not a printed value.

Experiments:
[1] = test system: HBV replication in HepG2.2.15 cells; assay: Anti-HBV activity in vitro in HepG2.2.15 cells (extracellular HBV DNA by qPCR); format: cell-based; conditions: Hepatitis B virus, HepG2.2.15, Anti-HBV activity in HepG2.2.15 cells; read-out: EC50
In short: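 Constitutively HBV-producing HepG2.2.15 cells were seeded overnight at 37 °C, then treated with half-log serial dilutions of compound (0.5% DMSO final) for five days. Supernatant HBV DNA was extracted and quantified by qPCR; EC50 is the concentration inhibiting HBV replication by 50%.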

[2] = Human microsomal clearance assay; format: in vitro ADME; conditions: human, 1 μM, pH 7.4
In short: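 Liver microsomes (0.5 mg/mL protein) were incubated with 1 μM compound at 37 °C, pH 7.4 phosphate, with an NADPH-regenerating system. Samples at 0-30 min were quenched and measured by LC-MS/MS for parent loss. No-NADPH controls were included.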

[3] = Lyophilisation solubility assay (Lysa); format: physicochemical; conditions: pH 6.5, aqueous buffer, thermodynamic from solid
Method: The aqueous solubility is an important physico-chemical property that plays a significant role in various physical and biological processes. It is desirable to have good solubility which enables good permeability and gastric and intestinal absorption, linear dose proportionality, less PK variability, and easy formulation for PD/PK studies. […] Lyophilisation solubility assay (Lysa) is a well adopted high throughput assay to measure compound solubility in industry.
Samples are prepared in duplicate from 10 mM DMSO stock solutions. After evaporation of DMSO with a centrifugal vacuum evaporator, the residue is solved in 0.05 M phosphate buffer (pH 6.5), stirred for one hour and then shook for two hours. After one night, the solution is filtered using a microtiter filter plate and then the filtrate and its 1/10 dilution are then analyzed by direct UV measurement or by HPLC-UV. In addition a four-point calibration curve is prepared from the 10 mM stock solutions and used for the solubility determination of the compounds. The results are in μg/ml. In case the percentage of sample measured in solution after evaporation divided by the calculated maximum of sample amount is bigger than 80% the solubility is reported as bigger than this value.

SMILES	EC50 [1]	CLh [2]	solubility thermodynamic [3]
COC(=O)C1=C(CN2[C@@H]3COC[C@H]2CN(C(=O)C(C)(C)C(=O)O)C3)NC(c2nccs2)=N[C@H]1c1ccc(F)cc1Cl [Example 79, 3-[(1S,5R)-9-[[(4R)-4-(2-chloro-4-fluoro-phenyl)-5-methoxycarbonyl-2-thiazol-2-yl-1,4-dihydropyrimidin-6-yl]methyl]-3-oxa-7,9-diazabicyclo[3.3.1]nonan-7-yl]-2,2-dimethyl-3-oxo-propanoic acid]	0.293 µM	3.5 mL/min/kg	> 745 µg/mL
COC(=O)C1=C(CN2[C@H]3CC[C@]2(C(=O)O)COC3)NC(c2nccs2)=N[C@H]1c1ccc(F)cc1Cl [Example 81, (1S,5R)-8-[[(4R)-4-(2-chloro-4-fluoro-phenyl)-5-methoxycarbonyl-2-thiazol-2-yl-1,4-dihydropyrimidin-6-yl]methyl]-3-oxa-8-azabicyclo[3.2.1]octane-5-carboxylic acid]	0.0405 µM	0 mL/min/kg	> 673 µg/mL
COC(=O)C1=C(CN2[C@H]3CC[C@]2(C(=O)O)COC3)NC(c2nccs2)=N[C@H]1c1ccc(F)c(F)c1C [Example 84, (1S,5R)-8-[[(4S)-4-(3,4-difluoro-2-methyl-phenyl)-5-methoxycarbonyl-2-thiazol-2-yl-1,4-dihydropyrimidin-6-yl]methyl]-3-oxa-8-azabicyclo[3.2.1]octane-5-carboxylic acid]	0.0376 µM	0 mL/min/kg	> 643 µg/mL
COC(=O)C1=C(CN2[C@@H]3C[C@H](CC(=O)O)C[C@H]2C(F)(F)C3)NC(c2nccs2)=N[C@H]1c1ccc(F)cc1Cl [Example 86, 2-[(1R,3S,5S)-8-[[(4R)-4-(2-chloro-4-fluoro-phenyl)-5-methoxycarbonyl-2-thiazol-2-yl-1,4-dihydropyrimidin-6-yl]methyl]-6,6-difluoro-8-azabicyclo[3.2.1]octan-3-yl]acetic acid]	0.002 µM	0 mL/min/kg	149 µg/mL (≈ 262 µM)
COC(=O)C1=C(CN2[C@H]3COC[C@@H]2[C@@H](F)[C@H](CC(=O)O)C3)NC(c2nccs2)=N[C@H]1c1cccc(F)c1Cl [Example 101, 2-[(1R,5R,6S,7S)-9-[[(4R)-4-(2-chloro-3-fluoro-phenyl)-5-methoxycarbonyl-2-thiazol-2-yl-1,4-dihydropyrimidin-6-yl]methyl]-6-fluoro-3-oxa-9-azabicyclo[3.3.1]nonan-7-yl]acetic acid]	0.024 µM	0 mL/min/kg	580 µg/mL (≈ 1020 µM)
CCOC(=O)C1=C(CN2[C@@H]3COC[C@H]2[C@H](F)[C@@H](CC(=O)O)C3)NC(c2nccs2)=N[C@H]1c1ccccc1Cl [Example 102, 2-[(1S,5S,6R,7R)-9-[[(4R)-4-(2-chlorophenyl)-5-ethoxycarbonyl-2-thiazol-2-yl-1,4-dihydropyrimidin-6-yl]methyl]-6-fluoro-3-oxa-9-azabicyclo[3.3.1]nonan-7-yl]acetic acid]	0.066 µM	3.0 mL/min/kg	410 µg/mL (≈ 728 µM)
CCOC(=O)C1=C(CN2[C@H]3COC[C@@H]2[C@@H](F)[C@H](CC(=O)O)C3)NC(c2nccs2)=N[C@H]1c1ccccc1Cl [Example 103, 2-[(1R,5R,6S,7S)-9-[[(4R)-4-(2-chlorophenyl)-5-ethoxycarbonyl-2-thiazol-2-yl-1,4-dihydropyrimidin-6-yl]methyl]-6-fluoro-3-oxa-9-azabicyclo[3.3.1]nonan-7-yl]acetic acid]	0.274 µM	0 mL/min/kg	345 µg/mL (≈ 613 µM)
COC(=O)C1=C(CN2[C@@H]3C[C@H](CC(=O)O)C[C@H]2C(F)(F)C3)NC(c2nccs2)=N[C@H]1c1ccc(F)c(F)c1 [Example 114, 2-[(1R,3S,5S)-8-[[(4S)-4-(3,4-difluorophenyl)-5-methoxycarbonyl-2-thiazol-2-yl-1,4-dihydropyrimidin-6-yl]methyl]-6,6-difluoro-8-azabicyclo[3.2.1]octan-3-yl]acetic acid]	0.0063 µM	1.2 mL/min/kg	224 µg/mL (≈ 405 µM)
